Data reported in patent publication US20230117034A1, “PYRAZOLOTRIAZINES” (Bayer Aktiengesellschaft, priority 2019, published 2023).
pIC50: −log10 of the molar value.

Experiments:
CDK9/CycT1 = molecular target: T1, CDK9/CycT1 (Homo sapiens, UniProt P50750); assay: CDK9/CycT1 high ATP kinase assay (TR-FRET, 2 mM ATP); assay type: biochemical; settings: 2 mM ATP (high ATP); median; read-out: CDK9/CyclinT1, 2 mM ATP (high ATP), IC50 (median)
T1 construct: Recombinant full-length His-tagged human CDK9 and CycT1; purchased Life Technologies PV4131; host or cells: insect cells
Summary of the method: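 Full-length His-tagged human CDK9/CycT1 (insect cell, ~0.5 μg/mL) preincubated 15 min at 22 °C with compound in Tris pH 8.0, MgCl2, DTT buffer before reaction with biotinylated peptide substrate at high ATP (2 mM).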

[1] = molecular target: T2, CYCLIN K (nuclear staining in CAL-120 cells) (Homo sapiens, UniProt O75909); assay: CYCLIN K nuclear protein level: immunofluorescence high content analysis (CAL-120); assay type: cell-based; settings: 24 h, 50% reduction of nuclear CCNK staining intensity, median, read-out: CYCLIN K degradation IF, DC50-[mol/l] (median)
T2 construct: endogenous in cells; host or cells: CAL-120 human breast cancer cells (DSMZ ACC 459)
Summary of the method: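 CAL-120 breast cancer cells treated in dose-response for 24 h at 37 °C, PFA-fixed and immunostained for cyclin K with Hoechst counterstain. Confocal imaging quantified nuclear intensity; DC50 is the concentration giving 50% reduction of nuclear CCNK staining, normalized to DMSO and control.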

[2] = tested on: BRCA1 mRNA expression in MDA-MB-231 cells; assay: qRT-PCR assay: BRCA1 mRNA expression in MDA-MB-231; assay type: cell-based, human; settings: Homo sapiens, MDA-MB-231, Inhibition of BRCA1 mRNA expression in MDA-MB-231 cells; median; read-out: RTqPCR-MDA-MB-231, IC50, BRCA1 (median)
Summary of the method: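 MDA-MB-231 cells, 200,000/well, treated 24 h after plating with continuous 24 h compound exposure. RNA extracted, 600 ng reverse-transcribed, BRCA1 measured by RT-qPCR normalized to GAPDH.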

[3] = molecular target: T3, CDK12 (nuclear staining in CAL-120 cells) (Homo sapiens, UniProt Q9NYV4); assay: CDK12 nuclear protein level: immunofluorescence/high content analysis (CAL-120); assay type: cell-based
T3 construct: endogenous in cells; host or cells: CAL-120 human breast cancer cells (DSMZ ACC 459)
Summary of the method: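 CAL-120 cells were treated with compound for 24 h at 37 °C, fixed with PFA and immunostained for CDK12. Nuclear CDK12 intensity was quantified by automated image analysis and normalized to DMSO and control. DC50 is the concentration giving 50% reduction of nuclear staining.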

T3 sequence (Q9NYV4 whole entry): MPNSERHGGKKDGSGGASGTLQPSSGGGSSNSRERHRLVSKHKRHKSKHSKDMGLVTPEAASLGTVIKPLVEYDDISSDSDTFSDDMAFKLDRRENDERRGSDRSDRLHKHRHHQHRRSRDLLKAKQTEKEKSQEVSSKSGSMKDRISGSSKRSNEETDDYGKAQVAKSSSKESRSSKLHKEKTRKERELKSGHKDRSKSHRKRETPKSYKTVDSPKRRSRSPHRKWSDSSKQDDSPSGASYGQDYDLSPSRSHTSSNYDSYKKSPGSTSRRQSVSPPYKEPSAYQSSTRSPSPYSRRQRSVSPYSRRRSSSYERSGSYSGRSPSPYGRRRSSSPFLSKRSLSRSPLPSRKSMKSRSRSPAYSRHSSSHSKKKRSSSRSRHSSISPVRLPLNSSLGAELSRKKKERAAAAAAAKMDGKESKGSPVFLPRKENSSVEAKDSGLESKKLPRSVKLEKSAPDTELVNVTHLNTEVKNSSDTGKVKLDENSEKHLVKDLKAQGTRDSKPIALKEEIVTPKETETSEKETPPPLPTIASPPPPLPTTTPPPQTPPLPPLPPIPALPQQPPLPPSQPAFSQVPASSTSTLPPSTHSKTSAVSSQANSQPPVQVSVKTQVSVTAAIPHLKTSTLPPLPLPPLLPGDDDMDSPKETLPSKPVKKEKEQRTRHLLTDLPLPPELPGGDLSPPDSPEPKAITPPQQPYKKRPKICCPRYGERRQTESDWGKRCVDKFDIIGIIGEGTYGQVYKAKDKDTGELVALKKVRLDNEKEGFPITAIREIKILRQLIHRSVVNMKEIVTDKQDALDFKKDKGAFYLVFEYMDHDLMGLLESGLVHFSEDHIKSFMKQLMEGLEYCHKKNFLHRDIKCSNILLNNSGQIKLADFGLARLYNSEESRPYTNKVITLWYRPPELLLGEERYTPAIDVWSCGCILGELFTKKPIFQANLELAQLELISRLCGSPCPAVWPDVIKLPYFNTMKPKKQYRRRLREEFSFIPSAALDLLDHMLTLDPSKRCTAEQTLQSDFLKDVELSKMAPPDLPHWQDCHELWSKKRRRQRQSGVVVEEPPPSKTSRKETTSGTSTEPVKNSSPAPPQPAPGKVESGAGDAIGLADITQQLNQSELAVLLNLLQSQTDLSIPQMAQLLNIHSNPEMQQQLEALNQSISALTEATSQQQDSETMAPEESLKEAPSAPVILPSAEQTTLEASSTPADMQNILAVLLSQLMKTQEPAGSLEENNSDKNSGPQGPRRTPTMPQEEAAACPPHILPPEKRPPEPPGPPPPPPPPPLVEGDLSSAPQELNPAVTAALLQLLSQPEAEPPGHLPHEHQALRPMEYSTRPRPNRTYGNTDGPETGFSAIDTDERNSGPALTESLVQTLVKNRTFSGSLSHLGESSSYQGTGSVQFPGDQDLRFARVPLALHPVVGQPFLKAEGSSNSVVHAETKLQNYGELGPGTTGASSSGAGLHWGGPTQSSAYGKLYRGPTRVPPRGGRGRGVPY
T3 sequence (O75909 whole entry partner): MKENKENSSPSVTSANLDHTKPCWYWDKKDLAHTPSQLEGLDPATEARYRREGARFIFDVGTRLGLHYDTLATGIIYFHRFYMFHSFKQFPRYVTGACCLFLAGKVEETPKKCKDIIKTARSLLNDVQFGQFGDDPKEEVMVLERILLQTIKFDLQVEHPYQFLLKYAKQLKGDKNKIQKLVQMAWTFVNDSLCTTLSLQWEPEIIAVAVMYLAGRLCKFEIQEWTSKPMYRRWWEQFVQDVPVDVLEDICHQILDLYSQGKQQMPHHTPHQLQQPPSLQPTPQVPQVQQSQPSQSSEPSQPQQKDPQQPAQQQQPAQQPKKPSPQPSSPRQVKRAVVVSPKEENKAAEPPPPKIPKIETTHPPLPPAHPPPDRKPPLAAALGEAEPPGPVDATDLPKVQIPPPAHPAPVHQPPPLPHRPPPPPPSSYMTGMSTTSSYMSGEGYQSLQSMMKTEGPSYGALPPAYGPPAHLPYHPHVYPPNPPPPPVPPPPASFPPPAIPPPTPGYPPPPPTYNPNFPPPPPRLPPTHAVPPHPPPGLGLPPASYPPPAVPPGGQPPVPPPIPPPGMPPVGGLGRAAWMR
T2 sequence (O75909 whole entry): as the sequence (O75909 whole entry partner) above
T2 sequence (Q9NYV4 whole entry partner): as the sequence (Q9NYV4 whole entry) above
T1 sequence (P50750 whole entry): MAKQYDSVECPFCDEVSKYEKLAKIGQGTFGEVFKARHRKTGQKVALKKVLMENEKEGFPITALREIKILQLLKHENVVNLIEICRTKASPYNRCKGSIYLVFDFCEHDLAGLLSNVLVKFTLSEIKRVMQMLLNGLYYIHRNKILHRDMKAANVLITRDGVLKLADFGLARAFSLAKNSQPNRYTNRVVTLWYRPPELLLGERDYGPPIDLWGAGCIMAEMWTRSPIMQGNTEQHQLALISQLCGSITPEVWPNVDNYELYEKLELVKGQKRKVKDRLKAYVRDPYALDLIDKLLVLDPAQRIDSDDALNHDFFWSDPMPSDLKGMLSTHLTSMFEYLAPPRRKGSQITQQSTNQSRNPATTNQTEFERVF
T1 sequence (O60563 whole entry partner): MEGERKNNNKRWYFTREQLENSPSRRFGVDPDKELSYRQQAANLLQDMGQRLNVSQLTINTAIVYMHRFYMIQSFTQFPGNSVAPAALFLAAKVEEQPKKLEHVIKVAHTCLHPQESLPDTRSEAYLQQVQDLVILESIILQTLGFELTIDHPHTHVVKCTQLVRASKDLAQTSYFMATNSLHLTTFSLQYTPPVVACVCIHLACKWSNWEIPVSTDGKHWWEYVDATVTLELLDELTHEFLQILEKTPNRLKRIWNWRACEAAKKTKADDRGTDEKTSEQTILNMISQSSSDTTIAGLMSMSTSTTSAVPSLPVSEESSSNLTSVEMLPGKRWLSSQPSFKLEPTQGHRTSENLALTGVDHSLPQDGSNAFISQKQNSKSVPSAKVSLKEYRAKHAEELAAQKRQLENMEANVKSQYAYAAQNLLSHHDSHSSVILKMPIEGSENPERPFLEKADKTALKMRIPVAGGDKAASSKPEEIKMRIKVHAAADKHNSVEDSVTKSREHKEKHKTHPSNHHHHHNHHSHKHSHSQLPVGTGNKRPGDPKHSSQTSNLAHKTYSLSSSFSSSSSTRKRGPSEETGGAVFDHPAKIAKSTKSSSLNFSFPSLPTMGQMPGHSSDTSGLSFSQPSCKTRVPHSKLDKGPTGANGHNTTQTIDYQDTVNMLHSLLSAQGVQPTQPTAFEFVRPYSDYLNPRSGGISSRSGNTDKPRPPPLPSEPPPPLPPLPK

Cc1ccc2[nH]c(CNc3nc(N4C[C@H]5C[C@@H]4CO5)nc4c(Br)cnn34)nc2c1 [Example 192, 8-bromo-N-[(5-methyl-1H-benzimidazol-2-yl)methyl]-2-[(1R,4R)-2-oxa-5-azabicyclo[2.2.1]heptan-5-yl]pyrazolo[1,5-a][1,3,5]triazin-4-amine]
pIC50 (CDK9/CycT1): < 4.70
DC50 [1]: 0.589 nM
pIC50 [2]: 8.69
DC50 ([3]; CAL-120 cells, 24 h, immunofluorescence, 50% reduction of nuclear CDK12 staining intensity, median, read-out: CDK12 degradation IF, DC50- [mol/l] (median)): 0.56 nM
(IC50 CDK12 high ATP) to (Degradation DC50 CDK12) ratio ([3]; ratio of IC50 CDK12 high ATP kinase assay to DC50 CDK12 degradation (IF, CAL-120)): 15180
